# Results: ChEMBL document CHEMBL2057110, “Investigation of the interaction between amodiaquine and human serum albumin by fluorescence spectroscopy and molecular modeling” (Eur J Med Chem, 2012)
# Legend:
# Assay type in all cases: ADME
# Settings in all cases: isolated protein
# [1] = target: T1, Albumin (Homo sapiens, UniProt P02768); experiment: Binding affinity to human serum albumin assessed as Stern-Volmer association constant at pH 7.4 and 291K by spectrofluorimetry
# [2] = target: T1, Albumin; experiment: Binding affinity to human serum albumin assessed as Stern-Volmer association constant at pH 7.4 and 310K by spectrofluorimetry
# [3] = target: T1, Albumin; experiment: Binding affinity to human serum albumin assessed as Stern-Volmer association constant at pH 7.4 and 301K by spectrofluorimetry
# [4] = target: T1, Albumin; experiment: Apparent binding affinity to human serum albumin at pH 7.4 and 301K by spectrofluorimetry
# [5] = target: T1, Albumin; experiment: Binding affinity to human serum albumin assessed as modified Stern-Volmer association constant at pH 7.4 and 310K by spectrofluorimetry
# [6] = target: T1, Albumin; experiment: Apparent binding affinity to human serum albumin at pH 7.4 and 310K by spectrofluorimetrysis
# [7] = target: T1, Albumin; experiment: Binding affinity to human serum albumin assessed as modified Stern-Volmer association constant at pH 7.4 and 291K by spectrofluorimetry in presence of ibuprofen
# [8] = target: T1, Albumin; experiment: Binding affinity to human serum albumin assessed as modified Stern-Volmer association constant at pH 7.4 and 291K by spectrofluorimetry in presence of warfarin
# [9] = target: T1, Albumin; experiment: Apparent binding affinity to human serum albumin at pH 7.4 and 291K by spectrofluorimetry
# T1 sequence (P02768 whole entry): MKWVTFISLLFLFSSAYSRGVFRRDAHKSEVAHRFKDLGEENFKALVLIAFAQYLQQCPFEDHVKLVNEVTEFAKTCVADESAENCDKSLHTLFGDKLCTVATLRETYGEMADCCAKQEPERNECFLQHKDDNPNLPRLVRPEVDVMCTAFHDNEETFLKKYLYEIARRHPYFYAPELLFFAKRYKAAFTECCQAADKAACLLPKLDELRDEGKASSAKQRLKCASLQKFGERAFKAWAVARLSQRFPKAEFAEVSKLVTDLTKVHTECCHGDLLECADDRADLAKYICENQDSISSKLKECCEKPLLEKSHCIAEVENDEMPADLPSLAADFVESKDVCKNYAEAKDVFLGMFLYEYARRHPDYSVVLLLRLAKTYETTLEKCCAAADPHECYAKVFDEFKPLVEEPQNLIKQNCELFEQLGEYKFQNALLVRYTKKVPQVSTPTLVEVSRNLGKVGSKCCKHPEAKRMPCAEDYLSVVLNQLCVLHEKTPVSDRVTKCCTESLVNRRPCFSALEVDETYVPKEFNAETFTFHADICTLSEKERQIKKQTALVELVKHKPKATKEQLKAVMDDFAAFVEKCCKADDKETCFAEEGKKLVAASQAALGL
smiles,measurement,setting,value
CCN(CC)Cc1cc(Nc2ccnc3cc(Cl)ccc23)ccc1O.Cl,KSV,[1],76600 M⁻¹
same,KSV,[2],48400 M⁻¹
same,KSV,[3],56200 M⁻¹
same,Kb,[4],48600 M⁻¹
same,Ka,[5],45900 M⁻¹
same,Kb,[6],67300 M⁻¹
same,Ka,[7],114000 M⁻¹
same,Ka,[8],73100 M⁻¹
same,Kb,[9],35000 M⁻¹
